From publication PMC10589313 (Nature Communications, 2023)
Several values for one entry are separate records, joined by “and”; a condition that tells them apart may be missing. Identical values can stand only once.

Assays:
human H4R Q347G mutant = target: T1, human H4R Q347G mutant (Homo sapiens, UniProt Q9H3N8, Q347G); assay: TGFα shedding assay, H4R Q347G mutant; format: cell-based
T1 construct: a mutant H4R (human, full-length, and untagged); expressed in transfected cells; host or cells: HEK293A
Experimental: (§1) The mutants were prepared using the primers listed in Supplementary Table 2. […] The chimeric Gαq/i1 subunit comprises the Gαq backbone and Gαi1-derived six-amino acid C-terminus and couples with Gi-coupled H4R but induces a Gq-dependent TGFα shedding response. After culturing for 1 day and incubating at 37 °C in a 5% CO2 incubator, the transfected cells were harvested by trypsinization, neutralized with Dulbecco’s modified Eagle’s medium containing 10% fetal calf serum (FCS) and penicillin–streptomycin, washed once with Hank’s balanced salt solution (HBSS) containing 5 mM of HEPES (pH 7.4), and resuspended in 6 mL of the HEPES-containing HBSS. The cell suspension was seeded into a 96-well plate at a volume of […] per well (typically, 48 wells per transfected cells) and incubated for 30 min in the CO2 incubator. Test compounds (10×, diluted in 0.01% BSA and 5 mM of HEPES-containing HBSS, […] volume) were added to duplicate wells and incubated for 1 h. After centrifugation, the conditioned medium ([…]) was transferred to an empty 96-well plate. AP reaction solution [10 mM of p-nitrophenylphosphate (p-NPP), 120 mM of Tris–HCl (pH 9.5), 40 mM of NaCl, and 10 mM of MgCl2] was dispensed into the cell culture plates and plates containing conditioned media ([…]). Absorbance was measured at 405 nm before and after a 1-h incubation period at 25 °C using a microplate reader (iMark™ Microplate Absorbance Reader; BioRad). Ligand-induced AP-TGFα release was calculated as previously described. The vehicle-treated AP-TGFα release signal was set as a baseline unless otherwise specified. AP-TGFα release signals were fitted with a four-parameter sigmoidal concentration-response curve, from which EC50 and Emax values were obtained, using GraphPad Prism 9 software (GraphPad Prism). Negative values of logarithmically transformed EC50 values (pEC50) were used to calculate the mean and standard error of independent experiments.
(§2) All functional study data were analyzed using Prism 9 (GraphPad) and are presented as mean ± standard error of the mean (SEM) of three independent experiments. Statistical analyses were performed using Prism 9 (GraphPad) with one-way analysis of variance followed by Dunnett’s post-hoc test. Values with p < 0.05 are considered statistically significant.

human H4R F344I mutant = target: T2, human H4R F344I mutant (Homo sapiens, UniProt Q9H3N8, F344I); assay: TGFα shedding assay, H4R F344I mutant; format: cell-based
T2 construct: a mutant H4R (human, full-length, and untagged); expressed in transfected cells; host or cells: HEK293A
Experimental: as §1, §2

human H4R N147A mutant = target: T3, human H4R N147A mutant (Homo sapiens, UniProt Q9H3N8, N147A); assay: TGFα shedding assay, H4R N147A mutant; format: cell-based; settings: for EC50: EC50 (nM)
T3 construct: a mutant H4R (human, full-length, and untagged); expressed in transfected cells; host or cells: HEK293A
Experimental: as §1, §2

H2R = settings: in words; cited from earlier work
H1R = settings: in words; cited from earlier work
human H4R W348Y mutant = target: T4, human H4R W348Y mutant (Homo sapiens, UniProt Q9H3N8, W348Y); assay: TGFα shedding assay, H4R W348Y mutant; format: cell-based
T4 construct: a mutant H4R (human, full-length, and untagged); expressed in transfected cells; host or cells: HEK293A
Experimental: as §1
All functional study data were analyzed using Prism 9 (GraphPad) and are presented as mean ± standard error of the mean (SEM) of three independent experiments. […]

human H4R Y319A mutant = target: T5, human H4R Y319A mutant (Homo sapiens, UniProt Q9H3N8, Y319A); assay: TGFα shedding assay, H4R Y319A mutant; format: cell-based
T5 construct: a mutant H4R (human, full-length, and untagged); expressed in transfected cells; host or cells: HEK293A
Experimental: as §1, §2

human wild-type H4R = target: T6, human wild-type H4R (Homo sapiens, UniProt Q9H3N8); assay: TGFα shedding assay, wild-type H4R; format: cell-based; settings: for EC50: EC50 (nM)
T6 construct: a mutant H4R (human, full-length, and untagged); expressed in transfected cells; host or cells: HEK293A
Experimental: as §1, §2

[1] = Imetit (M) -5 (log concentration), raw replicate values

T5 sequence (Q9H3N8 whole entry Y319A): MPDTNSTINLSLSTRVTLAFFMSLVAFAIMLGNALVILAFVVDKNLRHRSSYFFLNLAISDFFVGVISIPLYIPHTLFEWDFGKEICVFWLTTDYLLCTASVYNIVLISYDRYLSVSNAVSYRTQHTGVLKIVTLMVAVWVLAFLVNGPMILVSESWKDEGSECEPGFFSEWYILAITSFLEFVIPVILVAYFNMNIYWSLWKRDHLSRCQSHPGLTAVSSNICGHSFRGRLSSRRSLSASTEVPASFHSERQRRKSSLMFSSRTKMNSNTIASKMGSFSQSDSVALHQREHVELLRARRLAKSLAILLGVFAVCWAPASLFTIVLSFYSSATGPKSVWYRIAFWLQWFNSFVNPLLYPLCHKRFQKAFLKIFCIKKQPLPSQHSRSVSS
T4 sequence (Q9H3N8 whole entry W348Y): as the sequence (Q9H3N8 whole entry Y319A) above, with A319Y, W348Y counted along it
T1 sequence (Q9H3N8 whole entry Q347G): as the sequence (Q9H3N8 whole entry Y319A) above, with A319Y, Q347G counted along it
T3 sequence (Q9H3N8 whole entry N147A): as the sequence (Q9H3N8 whole entry Y319A) above, with N147A, A319Y counted along it
T6 sequence (Q9H3N8 whole entry): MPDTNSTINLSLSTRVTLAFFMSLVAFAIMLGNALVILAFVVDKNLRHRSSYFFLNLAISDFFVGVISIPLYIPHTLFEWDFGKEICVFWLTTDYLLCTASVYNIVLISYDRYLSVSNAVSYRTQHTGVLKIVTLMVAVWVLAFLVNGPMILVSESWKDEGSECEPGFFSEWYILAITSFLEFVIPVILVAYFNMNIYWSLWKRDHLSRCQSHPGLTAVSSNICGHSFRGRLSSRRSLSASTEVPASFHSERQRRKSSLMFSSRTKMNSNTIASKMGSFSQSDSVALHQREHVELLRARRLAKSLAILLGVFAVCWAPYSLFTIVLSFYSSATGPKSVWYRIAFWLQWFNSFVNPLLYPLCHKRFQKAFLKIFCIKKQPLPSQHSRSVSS
T2 sequence (Q9H3N8 whole entry F344I): as the sequence (Q9H3N8 whole entry Y319A) above, with A319Y, F344I counted along it

## N=C(N)SCCc1cnc[nH]1 [Imetit, imetit]
Human H4R Q347G mutant; EC50 (nM), Q347G mutant
  EC50: 6.2 nM
Human H4R Q347G mutant; EC50 (nM), Q347G, single experiments, source data Figure 4e-f
  EC50: 1.75 nM and 12.3 nM and 4.7 nM
Human H4R Q347G mutant; [1]
  Shedding assay response, Q347G: 13.312 and 10.4592 and 11.4881 and 12.2257 and 13.3616 and 12.7037 and 13.9485 and 10.6151 and 26.3814
Human H4R Q347G mutant; Q347G (H1R/H2R type) mutant vs wild type
  signaling activity at mutant, in words: slight increase
Human H4R Q347G mutant; Q347G mutant, EC50 relative to WT
  fold of change: 0.2 fold
Human H4R Q347G mutant; pEC50, Q347G, single experiments, source data Figure 4e-f
  EC50: 12.3 nM
Human H4R Q347G mutant; pEC50 mean ± SEM, Q347G mutant
  EC50: 4.68 nM
Human H4R Q347G mutant; read-out: Emax (%) mean ± SEM
  Emax: 12.9 ± 1.22%
Human H4R F344I mutant
  EC50: > 10 µM
Human H4R F344I mutant; F344I (H1R mimic) mutant vs wild type
  signaling activity at mutant, in words: loss of imetit activity
Human H4R F344I mutant; [1]
  Shedding assay response, F344I: 1.112 and 4.483 and 7.185 and 5.21 and 4.635 and 3.564 and 4.726 and 4.072 and 2.0567
Human H4R N147A mutant; N147A mutant
  EC50: 116 nM
Human H4R N147A mutant; N147A, single experiments, source data Figure 4e-f
  EC50: 137 nM and 107 nM and 104 nM
Human H4R N147A mutant; [1]
  Shedding assay response, N147A: 17.6838 and 20.1153 and 13.587 and 17.1019 and 17.2369 and 16.9193 and 20.3122 and 17.3343 and 19.4779
Human H4R N147A mutant; N147A mutant, EC50 relative to WT
  fold of change: 3.9 fold
Human H4R N147A mutant; read-out: Emax (%) mean ± SEM
  Emax: 17.2 ± 0.52%
H2R
  binding to H2R: does not bind
H1R
  binding to H1R: does not bind
Human H4R W348Y mutant
  EC50: > 10 µM
Human H4R W348Y mutant; [1]
  Shedding assay response, W348Y: 5.993 and 7.639 and 4.713 and 7.402 and 9.589 and 3.141 and 9.854 and 11.9801 and 8.402
Human H4R W348Y mutant; W348Y (H1R mimic) mutant vs wild type
  signaling activity at mutant, in words: loss of imetit activity
Human H4R Y319A mutant; EC50 (nM), Y319A mutant
  EC50: 159 nM
Human H4R Y319A mutant; [1]
  Shedding assay response, Y319A: 15.1866 and 16.9873 and 18.1596 and 17.4201 and 15.3203 and 22.2497 and 14.1035 and 13.1515 and 10.7745
Human H4R Y319A mutant; Y319A mutant, EC50 relative to WT
  fold of change: 5.3 fold
Human H4R Y319A mutant; pEC50 mean ± SEM, Y319A mutant
  EC50: 141 nM
Human H4R Y319A mutant; read-out: Emax (%) mean ± SEM
  Emax: 15.8 ± 1.58%
Human wild-type H4R; WT H4R
  EC50: 29.9 nM
Human wild-type H4R; hH4R, single experiments (3 columns), source data Figure 4e-f
  EC50: 30.7 nM and 23 nM
Human wild-type H4R; [1]
  Shedding assay response, WT: 14.3865 and 12.6364 and 12.8296 and 15.366 and 17.4678 and 18.6444 and 14.3694 and 15.3398 and 17.1099
